Source: patent US20220160867A1, “METHODS AND COMPOSITIONS COMPRISING CATIONIC LIPIDS FOR IMMUNOTHERAPY BY DIRECT TUMOR INJECTION” (PDS Biotechnology Corporation, priority 2020, published 2022)

Test system: HPV-positive TC-1 tumor cells
Experiment: TC-1 tumor model, tumor growth and survival after single treatment
Assay type: in vivo, B6 mice
Method: FIG. 1 provides a survival plot: B6 mice (n=4 per group) were implanted with 50,000 TC1 tumor cells subcutaneously. On day 10, group 2 received tumor vaccine R-DOTAP−HPV mix formulation (100 μl) (ASP3-250-HPV mix) containing HPV antigens (ASP3/R-DOTAP (S.C.) in the opposite flank of the tumor and group 3 mice received intra-tumoral injection of R-DOTAP (50 μl of 6 mg/ml) (RDOTAP (IT)).
Three groups of mice were injected on day 0 with 50,000 HPV-positive TC-1 tumor cells. In order for a stringent test of antitumor effect, the tumors were allowed to grow to a size of 6-7 mm prior to treatment on Day 10. The aggressively growing tumors reached a size of 10 mm by Day 14. Group 1 mice (Naïve) were left untreated and had to be sacrificed by Day 16. The mice in Group 2 (ASP3/R-DOTAP S.C.) were treated with one subcutaneous injection of R-DOTAP+HPV16(49-57) antigen injection on the opposite flank to the tumor. The mice in Group 3 (R-DOTAP IT) were treated with a single intra-tumoral injection of R-DOTAP only. The tumor sizes and survival of all 3 groups were monitored.
FIG. 1 provides a survival plot: B6 mice (n=4 per group) were implanted with 50,000 TC1 tumor cells subcutaneously.

SMILES: CCCCCCCC/C=C\CCCCCCCC(=O)OC[C@@H](C[N+](C)(C)C)OC(=O)CCCCCCC/C=C\CCCCCCCC [R-DOTAP, (R)-1,2-dioleoyl-3-trimethylammonium propane]
- antitumor efficacy (survival plot, FIG. 1) (intra-tumoral R-DOTAP only, 50 μl of 6 mg/ml, no antigen, compared with sub-cutaneous R-DOTAP+antigen): comparable antitumor efficacy
- tumor growth rates (tumors 6-7 mm at single treatment on Day 10, data not shown): dramatic slowing of the tumor growth rates
